Tests used:
[1] = test system: tibialis anterior muscle of mdx mice; assay: Gene expression pattern of tibialis anterior muscle of mdx mice (RT Profiler PCR Array); format: in vivo, mouse
Protocol: In turn, the biochemical analysis of the tibialis anterior muscle was performed by means of RNA extraction and expression pattern analysis in control mice, mdx mice and mice subjected to different treatments. To that end, the […] skeletal muscle, myogenesis and myopathy RT Profiler PCR Array (PAHS-099Z, QIAGEN) was used, using cDNA mixtures of at least 3 mice per group. The expression profile of 84 genes involved in physiopathological mechanisms of the skeletal muscle was thus analyzed. The experiments were conducted in 7300 Real-Time PCR equipment (Applied Biosystems) and the results obtained were analyzed using QIAGEN online software (http://www.sabiosciences.com/dataanalysis.php).

mdx mice [2] = assay: Muscle degeneration/regeneration: percentage of central nuclei in muscle cryosections of mdx mice; format: in vivo, mouse; conditions: 5-week treatment of mdx mice; 0.25 mg/mL in drinking water; FIG. 5
Protocol: After concluding the 5-week treatment, the tibialis anterior muscle was obtained and processed for subsequent biochemical and immunohistological analysis to determine the degree of muscle damage. Cell-death derived regeneration was determined in muscle cryosections by means of quantifying the percentage of central nuclei using standard immunofluorescence techniques for detecting collagen IV and cell nuclei.

mdx mice [3] = assay: Grip strength of dystrophic mdx mice; format: in vivo, mouse; conditions: 0.25 mg/mL in drinking water, one-month old mdx mice
Protocol: One-month old male dystrophic mdx mice supplied by Jackson Laboratory (https://www.jax.org/strain/001801) were used. The biological assays for measuring the effect of the Ahulken (AHK) compounds on muscle function were performed with one-month old mice, whereas the in vivo assays for determining the effect on the heart and CNS were performed with four-month old mice. The one-month old mice were treated with compound AHK1 or compound AHK2 for 5 weeks, where said compounds were administered in drinking water at a concentration of 0.25 mg/mL. The muscle strength of the front paws was measured every week using a grip strength meter and the obtained value was normalized by the body weight of the animal. To that end, the indications described in the TREAT-NMD Neuromuscular Network protocol (http://www.treat-nmd.eu/downloads/file/sops/dmd/MDX/DMD_M.2.2.001.pdf) were followed.

[4] = test system: fibers isolated from mouse flexor digitorum brevis muscle (dystrophic MDX fibers); assay: Baseline intracellular calcium levels in mouse muscle fibers (Fura 2-AM); format: cell-based; conditions: 150 nM, overnight treatment; FIG. 2
Protocol: Fibers isolated from mouse flexor digitorum brevis muscle were cultured overnight in the presence or absence of compounds AHK1 and AHK2 at a concentration of 150 nM. Baseline intracellular calcium levels were evaluated by means of incubating the fibers with Fura 2-AM ratiometric fluorochrome (4 μM) and pluronic acid (0.02%) for 30 minutes at 37° C., in the culture medium. The fibers were viewed with a high-resolution digital camera and intracellular [Ca^2+] was estimated by means of a 340 nm/380 nm excitation ratio.

[5] = target: T1, RyR1-calstabin1 interaction (Homo sapiens, UniProt P21817+P62942); assay: RyR1-calstabin1 interaction by in situ PLA in human myotubes under SIN1 nitro-oxidative stress; format: cell-based; conditions: pre-treated 12 hours at 150 nM; SIN1 5 mM 30 minutes; FIG. 3
T1 construct: endogenous in cells; host or cells: LHCN-M2 human myotubes (differentiated for 9 days)
T1 sequence (P21817 whole entry): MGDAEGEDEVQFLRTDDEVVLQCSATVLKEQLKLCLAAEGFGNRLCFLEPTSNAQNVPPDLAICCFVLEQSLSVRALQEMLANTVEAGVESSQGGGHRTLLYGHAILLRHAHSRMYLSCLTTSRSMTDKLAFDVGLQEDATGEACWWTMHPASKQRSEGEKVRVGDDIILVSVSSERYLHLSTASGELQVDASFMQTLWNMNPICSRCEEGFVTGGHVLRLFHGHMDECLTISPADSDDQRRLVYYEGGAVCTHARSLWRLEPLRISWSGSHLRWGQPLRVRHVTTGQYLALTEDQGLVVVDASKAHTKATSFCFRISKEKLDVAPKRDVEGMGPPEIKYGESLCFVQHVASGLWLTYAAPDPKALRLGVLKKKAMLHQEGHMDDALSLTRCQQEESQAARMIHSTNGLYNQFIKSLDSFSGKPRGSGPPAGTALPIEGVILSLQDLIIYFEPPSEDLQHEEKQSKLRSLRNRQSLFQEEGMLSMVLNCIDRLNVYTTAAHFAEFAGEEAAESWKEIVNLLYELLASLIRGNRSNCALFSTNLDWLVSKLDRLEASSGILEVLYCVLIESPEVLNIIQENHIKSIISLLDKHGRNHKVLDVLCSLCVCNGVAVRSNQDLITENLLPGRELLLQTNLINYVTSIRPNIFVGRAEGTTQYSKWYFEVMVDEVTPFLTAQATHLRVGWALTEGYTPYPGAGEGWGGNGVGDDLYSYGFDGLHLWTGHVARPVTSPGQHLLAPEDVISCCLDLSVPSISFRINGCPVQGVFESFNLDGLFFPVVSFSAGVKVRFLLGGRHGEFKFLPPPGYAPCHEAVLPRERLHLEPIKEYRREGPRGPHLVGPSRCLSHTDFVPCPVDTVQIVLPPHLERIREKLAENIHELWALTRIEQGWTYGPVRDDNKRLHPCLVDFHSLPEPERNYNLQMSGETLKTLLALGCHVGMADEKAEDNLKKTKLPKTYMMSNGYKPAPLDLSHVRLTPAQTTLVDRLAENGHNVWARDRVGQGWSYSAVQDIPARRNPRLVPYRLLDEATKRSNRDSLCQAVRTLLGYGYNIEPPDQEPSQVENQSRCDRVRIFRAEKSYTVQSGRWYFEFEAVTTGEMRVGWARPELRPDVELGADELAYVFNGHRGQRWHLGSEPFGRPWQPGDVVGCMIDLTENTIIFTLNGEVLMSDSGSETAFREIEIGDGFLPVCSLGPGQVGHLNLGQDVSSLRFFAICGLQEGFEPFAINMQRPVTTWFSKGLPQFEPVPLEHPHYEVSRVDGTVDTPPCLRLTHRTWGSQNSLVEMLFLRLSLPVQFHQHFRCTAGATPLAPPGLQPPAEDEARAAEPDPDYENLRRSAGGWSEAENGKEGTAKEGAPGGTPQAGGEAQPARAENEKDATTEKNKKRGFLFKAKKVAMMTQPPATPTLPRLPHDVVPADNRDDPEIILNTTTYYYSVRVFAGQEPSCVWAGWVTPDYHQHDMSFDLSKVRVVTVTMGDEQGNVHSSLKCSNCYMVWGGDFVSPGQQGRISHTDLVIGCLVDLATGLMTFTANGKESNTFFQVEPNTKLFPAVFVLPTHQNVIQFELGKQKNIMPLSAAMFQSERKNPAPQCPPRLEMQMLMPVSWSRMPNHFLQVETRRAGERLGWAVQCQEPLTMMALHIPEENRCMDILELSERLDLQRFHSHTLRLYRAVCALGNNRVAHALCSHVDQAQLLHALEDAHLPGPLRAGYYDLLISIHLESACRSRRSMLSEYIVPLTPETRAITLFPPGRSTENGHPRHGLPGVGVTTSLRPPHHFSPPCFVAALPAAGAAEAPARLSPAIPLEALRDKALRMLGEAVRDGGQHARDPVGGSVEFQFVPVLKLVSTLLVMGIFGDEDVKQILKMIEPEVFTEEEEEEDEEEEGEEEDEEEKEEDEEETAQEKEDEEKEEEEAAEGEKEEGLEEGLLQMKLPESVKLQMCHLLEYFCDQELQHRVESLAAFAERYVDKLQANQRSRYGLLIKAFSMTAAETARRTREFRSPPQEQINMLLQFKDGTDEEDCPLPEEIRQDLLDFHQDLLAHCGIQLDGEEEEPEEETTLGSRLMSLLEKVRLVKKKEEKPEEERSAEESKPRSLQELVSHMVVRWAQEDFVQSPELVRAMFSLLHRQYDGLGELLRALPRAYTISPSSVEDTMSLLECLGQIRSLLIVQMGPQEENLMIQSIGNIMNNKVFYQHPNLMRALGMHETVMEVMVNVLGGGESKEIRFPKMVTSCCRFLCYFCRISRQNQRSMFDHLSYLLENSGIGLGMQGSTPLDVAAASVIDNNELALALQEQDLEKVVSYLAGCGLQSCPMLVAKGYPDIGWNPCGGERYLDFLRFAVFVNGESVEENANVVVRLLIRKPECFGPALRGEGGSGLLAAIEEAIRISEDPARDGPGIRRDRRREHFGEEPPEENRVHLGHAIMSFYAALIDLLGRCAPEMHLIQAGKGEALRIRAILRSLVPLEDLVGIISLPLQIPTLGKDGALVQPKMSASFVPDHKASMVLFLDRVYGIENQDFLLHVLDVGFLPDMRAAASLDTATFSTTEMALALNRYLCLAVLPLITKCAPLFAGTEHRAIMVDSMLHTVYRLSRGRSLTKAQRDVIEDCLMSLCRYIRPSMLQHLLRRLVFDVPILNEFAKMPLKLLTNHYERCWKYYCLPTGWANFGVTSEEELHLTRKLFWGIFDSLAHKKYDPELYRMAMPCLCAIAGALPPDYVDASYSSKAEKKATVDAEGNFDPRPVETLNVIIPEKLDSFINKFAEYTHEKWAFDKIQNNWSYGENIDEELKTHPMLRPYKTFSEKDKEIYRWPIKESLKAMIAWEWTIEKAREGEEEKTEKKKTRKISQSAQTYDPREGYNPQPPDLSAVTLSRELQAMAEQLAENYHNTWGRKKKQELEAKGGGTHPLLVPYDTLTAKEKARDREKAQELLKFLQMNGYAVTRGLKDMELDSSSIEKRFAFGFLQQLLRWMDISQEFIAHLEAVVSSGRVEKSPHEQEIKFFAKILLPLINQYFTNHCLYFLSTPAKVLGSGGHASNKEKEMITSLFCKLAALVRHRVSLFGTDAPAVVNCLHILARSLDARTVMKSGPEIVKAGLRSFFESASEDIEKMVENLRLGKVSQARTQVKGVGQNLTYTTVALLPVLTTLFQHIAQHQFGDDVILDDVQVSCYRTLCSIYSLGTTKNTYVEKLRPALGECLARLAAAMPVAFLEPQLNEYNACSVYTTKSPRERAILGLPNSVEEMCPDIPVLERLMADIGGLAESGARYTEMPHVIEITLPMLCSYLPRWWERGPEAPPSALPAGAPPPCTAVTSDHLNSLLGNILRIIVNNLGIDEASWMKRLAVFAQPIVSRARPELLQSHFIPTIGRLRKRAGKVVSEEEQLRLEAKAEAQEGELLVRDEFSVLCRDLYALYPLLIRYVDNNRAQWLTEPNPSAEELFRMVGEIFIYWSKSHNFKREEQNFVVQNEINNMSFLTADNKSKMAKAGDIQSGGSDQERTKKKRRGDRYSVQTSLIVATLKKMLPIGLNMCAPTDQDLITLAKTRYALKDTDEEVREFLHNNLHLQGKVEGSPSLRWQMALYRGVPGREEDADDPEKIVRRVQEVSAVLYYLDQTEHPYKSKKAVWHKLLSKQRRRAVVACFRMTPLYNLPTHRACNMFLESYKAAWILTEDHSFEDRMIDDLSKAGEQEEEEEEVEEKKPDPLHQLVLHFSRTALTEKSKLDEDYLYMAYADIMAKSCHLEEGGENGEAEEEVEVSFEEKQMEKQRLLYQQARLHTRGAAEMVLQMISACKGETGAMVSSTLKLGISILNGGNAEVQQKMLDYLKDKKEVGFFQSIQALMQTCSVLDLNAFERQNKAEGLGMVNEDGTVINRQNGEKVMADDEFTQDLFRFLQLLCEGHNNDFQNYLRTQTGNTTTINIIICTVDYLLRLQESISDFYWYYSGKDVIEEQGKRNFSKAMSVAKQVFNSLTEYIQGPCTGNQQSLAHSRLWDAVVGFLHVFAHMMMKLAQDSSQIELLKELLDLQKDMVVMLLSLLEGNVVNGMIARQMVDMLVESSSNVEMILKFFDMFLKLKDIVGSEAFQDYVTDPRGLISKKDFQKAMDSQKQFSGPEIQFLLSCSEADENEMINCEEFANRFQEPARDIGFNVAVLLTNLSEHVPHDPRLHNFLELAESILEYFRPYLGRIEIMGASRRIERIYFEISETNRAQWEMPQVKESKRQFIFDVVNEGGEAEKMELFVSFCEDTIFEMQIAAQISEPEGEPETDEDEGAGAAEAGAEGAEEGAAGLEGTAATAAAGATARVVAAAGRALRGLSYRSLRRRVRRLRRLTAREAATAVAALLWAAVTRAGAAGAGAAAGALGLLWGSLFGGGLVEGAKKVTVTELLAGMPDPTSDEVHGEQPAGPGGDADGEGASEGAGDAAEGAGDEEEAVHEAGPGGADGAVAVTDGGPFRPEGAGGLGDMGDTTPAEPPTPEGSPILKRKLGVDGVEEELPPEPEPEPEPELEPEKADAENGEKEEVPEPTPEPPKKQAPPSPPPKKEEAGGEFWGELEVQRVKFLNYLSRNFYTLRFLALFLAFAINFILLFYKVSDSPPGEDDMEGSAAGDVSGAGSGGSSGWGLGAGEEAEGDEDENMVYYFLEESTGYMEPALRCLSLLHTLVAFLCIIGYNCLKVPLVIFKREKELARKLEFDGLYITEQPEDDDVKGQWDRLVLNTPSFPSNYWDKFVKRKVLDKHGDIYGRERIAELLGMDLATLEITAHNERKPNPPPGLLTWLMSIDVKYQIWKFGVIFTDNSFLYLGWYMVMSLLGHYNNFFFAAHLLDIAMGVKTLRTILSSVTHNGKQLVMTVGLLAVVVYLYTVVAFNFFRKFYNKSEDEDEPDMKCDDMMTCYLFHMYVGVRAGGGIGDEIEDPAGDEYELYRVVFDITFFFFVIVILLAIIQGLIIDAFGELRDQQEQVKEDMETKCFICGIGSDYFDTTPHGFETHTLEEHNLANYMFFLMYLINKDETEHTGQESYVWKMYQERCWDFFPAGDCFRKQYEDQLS
T1 sequence (P62942 2-108 limits assumed): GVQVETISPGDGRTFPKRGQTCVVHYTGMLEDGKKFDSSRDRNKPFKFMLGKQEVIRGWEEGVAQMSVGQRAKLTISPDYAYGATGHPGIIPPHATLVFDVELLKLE
Protocol: This assay was carried out in human control myotubes LHCN-M2 after 9 days in differentiation medium. Said myotubes were pre-treated for 12 hours with compounds AHK1 and AHK2 at a concentration of 150 nM. After treatment, the myotubes were subjected to peroxynitrite-induced nitro-oxidative stress by means of the addition of SIN1 (5 mM) for 30 minutes. RyR1-calstabin colocalization was analyzed by means of the in situ proximity ligation technique (in situ PLA) for which Sigma's Duolink II Network Fluorescence Kit and RyR1- and calstabin 1-specific antibodies were used. This technique allows detecting the exact location of two antigens located at a distance less than 40 nm from one another. To determine RyR1-calstabin-1 colocalization, 3 photographs were quantified for each condition with about 9 myotubes per field, using Image J computer software (http://rsb.info.nih.gov/ij/download.html). The colocalization area in each image was normalized to the myosin expression area, which was determined by means of immunofluorescence with a fluorescein-conjugated specific antibody.

[6] = test system: human control myotubes LHCN-M2; assay: In vitro toxicity in human myotubes, CytoTox 96 colorimetric assay; format: cell-based; conditions: concentrations between 10 nM and 2 mM; 24 hours of incubation; FIG. 1
Protocol: These assays were carried out in human control myotubes LHCN-M2 after 14 days in differentiation medium. To determine the toxicity of the different analyzed compounds, particularly AHK1 and AHK2 according to the invention, these compounds were added to the culture medium for 24 hours at 37° C. at different concentrations (0-2 mM). For comparison purposes, the same assay was performed by adding reference compound S-107. Cell viability was determined by means of Cytotox 96 (Promega) colorimetric assay following instructions in the manual.

Structure (SMILES): COc1cccc(SCc2cn(CC(=O)O)nn2)c1 [AHK1, 1-carboxymethyl-4-[3-(methoxy)phenylthiomethyl]-1H-1,2,3-triazole]
- Ratio of change vs. control, Akt1 ([1]; gene Akt1, MDX + AHK1, 5 weeks, tibialis anterior, untreated MDX 2.63): 1.42
- Ratio of change vs. control, Bcl2 ([1]; gene Bcl2, MDX + AHK1, 5 weeks, tibialis anterior, untreated MDX 1.94): 1.05
- Ratio of change vs. control, Bmp4 ([1]; gene Bmp4, MDX + AHK1, 5 weeks, tibialis anterior, untreated MDX 1.93): 2.08
- Ratio of change vs. control, Capn2 ([1]; gene Capn2, MDX + AHK1, 5 weeks, tibialis anterior, untreated MDX 2.90): 1.75
- Ratio of change vs. control, Casp3 ([1]; gene Casp3, MDX + AHK1, 5 weeks, tibialis anterior, untreated MDX 10.28): 5.27
- Ratio of change vs. control, Cast ([1]; gene Cast, MDX + AHK1, 5 weeks, tibialis anterior, untreated MDX 1.86): 1.49
- Ratio of change vs. control, Cav3 ([1]; gene Cav3, MDX + AHK1, 5 weeks, tibialis anterior, untreated MDX 3.28): 1.68
- Ratio of change vs. control, Cryab ([1]; gene Cryab, MDX + AHK1, 5 weeks, tibialis anterior, untreated MDX 3.08): 1.50
- Ratio of change vs. control, Ctnnb1 ([1]; gene Ctnnb1, MDX + AHK1, 5 weeks, tibialis anterior, untreated MDX 1.79): 1.27
- Ratio of change vs. control, Dag1 ([1]; gene Dag1, MDX + AHK1, 5 weeks, tibialis anterior, untreated MDX 2.27): 1.23
- Ratio of change vs. control, Des ([1]; gene Des, MDX + AHK1, 5 weeks, tibialis anterior, untreated MDX 2.14): 1.53
- Ratio of change vs. control, Dysf ([1]; gene Dysf, MDX + AHK1, 5 weeks, tibialis anterior, untreated MDX 2.15): 1.28
- Ratio of change vs. control, Foxo3 ([1]; gene Foxo3, MDX + AHK1, 5 weeks, tibialis anterior, untreated MDX 1.76): 1.14
- Ratio of change vs. control, Igf1 ([1]; gene Igf1, MDX + AHK1, 5 weeks, tibialis anterior, untreated MDX 2.87): 2.07
- Ratio of change vs. control, Igf2 ([1]; gene Igf2, MDX + AHK1, 5 weeks, tibialis anterior, untreated MDX 22.31): 9.78
- Ratio of change vs. control, Igfbp3 ([1]; gene Igfbp3, MDX + AHK1, 5 weeks, tibialis anterior, untreated MDX 1.77): 1.34
- Ratio of change vs. control, Igfbp5 ([1]; gene Igfbp5, MDX + AHK1, 5 weeks, tibialis anterior, untreated MDX 2.52): 1.43
- Ratio of change vs. control, Ikbkb ([1]; gene Ikbkb, MDX + AHK1, 5 weeks, tibialis anterior, untreated MDX 2.72): 1.62
- Ratio of change vs. control, Il1b ([1]; gene Il1b, MDX + AHK1, 5 weeks, tibialis anterior, untreated MDX 17.77): 2.82
- Ratio of change vs. control, Il6 ([1]; gene Il6, MDX + AHK1, 5 weeks, tibialis anterior, untreated MDX 32.72): 9.76
- Ratio of change vs. control, Lmna ([1]; gene Lmna, MDX + AHK1, 5 weeks, tibialis anterior, untreated MDX 5.29): 2.52
- Ratio of change vs. control, Mapk3 ([1]; gene Mapk3, MDX + AHK1, 5 weeks, tibialis anterior, untreated MDX 2.61): 1.69
- Ratio of change vs. control, Mmp9 ([1]; gene Mmp9, MDX + AHK1, 5 weeks, tibialis anterior, untreated MDX 4.51): 2.01
- Ratio of change vs. control, Musk ([1]; gene Musk, MDX + AHK1, 5 weeks, tibialis anterior, untreated MDX 3.51): 2.00
- Ratio of change vs. control, Myf5 ([1]; gene Myf5, MDX + AHK1, 5 weeks, tibialis anterior, untreated MDX 3.40): 2.13
- Ratio of change vs. control, Myod1 ([1]; gene Myod1, MDX + AHK1, 5 weeks, tibialis anterior, untreated MDX 4.27): 1.28
- Ratio of change vs. control, Myog ([1]; gene Myog, MDX + AHK1, 5 weeks, tibialis anterior, untreated MDX 17.36): 3.24
- Ratio of change vs. control, Nfkb1 ([1]; gene Nfkb1, MDX + AHK1, 5 weeks, tibialis anterior, untreated MDX 2.45): 1.67
- Ratio of change vs. control, Pax3 ([1]; gene Pax3, MDX + AHK1, 5 weeks, tibialis anterior, untreated MDX 2.16): 2.48
- Ratio of change vs. control, Pax7 ([1]; gene Pax7, MDX + AHK1, 5 weeks, tibialis anterior, untreated MDX 3.82): 2.55
- Ratio of change vs. control, Ppargc1b ([1]; gene Ppargc1b, MDX + AHK1, 5 weeks, tibialis anterior, untreated MDX 1.77): 1.23
- Ratio of change vs. control, Prkaa1 ([1]; gene Prkaa1, MDX + AHK1, 5 weeks, tibialis anterior, untreated MDX 2.33): 1.55
- Ratio of change vs. control, Prkag3 ([1]; gene Prkag3, MDX + AHK1, 5 weeks, tibialis anterior, untreated MDX 2.52): 2.68
- Ratio of change vs. control, Rhoa ([1]; gene Rhoa, MDX + AHK1, 5 weeks, tibialis anterior, untreated MDX 2.30): 1.80
- Ratio of change vs. control, Rps6kb1 ([1]; gene Rps6kb1, MDX + AHK1, 5 weeks, tibialis anterior, untreated MDX 1.77): 1.25
- Ratio of change vs. control, Tgfb1 ([1]; gene Tgfb1, MDX + AHK1, 5 weeks, tibialis anterior, untreated MDX 6.51): 3.61
- Ratio of change vs. control, Tnf ([1]; gene Tnf, MDX + AHK1, 5 weeks, tibialis anterior, untreated MDX 15.01): 10.27
- Ratio of change vs. control, Tnnc1 ([1]; gene Tnnc1, MDX + AHK1, 5 weeks, tibialis anterior, untreated MDX 25.00): 4.53
- Ratio of change vs. control, Tnnt1 ([1]; gene Tnnt1, MDX + AHK1, 5 weeks, tibialis anterior, untreated MDX 12.09): 3.37
- Ratio of change vs. control, Utrn ([1]; gene Utrn, MDX + AHK1, 5 weeks, tibialis anterior, untreated MDX 2.03): 1.35
- number of genes the expression of which was increased with respect to control (at least 1.75-fold) ([1]; mdx mice treated 5 weeks, 84 genes analyzed, 40 in untreated mdx): 20
- percentage of central nuclei (mdx mice [2]): significantly reduced
- grip strength compared to untreated littermates (mdx mice [3]; after 2 weeks of treatment): increased significantly
- increase of muscle strength (mdx mice [3]; after 5 weeks of treatment, FIG. 4): 20%
- intracellular calcium levels at rest in MDX fibers [4]: brought intracellular calcium levels back to the control levels
- dissociation of the RyR1-Calst1 complex in the presence of SIN1 [5]: partially prevented
- in vitro acute toxicity against human myotubes [6]: do not show in vitro acute toxicity

From patent US11377427B2, “Triazoles for regulating intracellular calcium homeostasis” (UNIVERSIDAD DEL PAIS VASCO, priority 2016, dated 2022)
